Test results published in article PMC10174618, “Monoterpenoid aryl hydrocarbon receptor allosteric antagonists protect against ultraviolet skin damage in female mice” (Nature Communications, 2023).

Tests used:
Test in all cases: biochemical
Parameters in all cases: KINOMEscan scanMAX active site-directed competition binding assay, percent of control, 468 kinases
Conditions in all cases: competition binding, percent of control
[1] = target: AAK1 (Homo sapiens, UniProt Q2M2I8)
How it was run: (§1)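 KINOMEscan active site-directed competition binding assay against 468 human kinases with 100 μM S-carvone. Binding expressed as % of control, with 35% of control as the inhibition threshold.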

[2] = target: T1, ADCK4 (Homo sapiens, UniProt Q96D53)
T1 construct: gene COQ8B
How it was run: as §1

[3] = target: AURKC (Homo sapiens, UniProt Q9UQB9)
How it was run: as §1

[4] = target: BRAF(V600E) (Homo sapiens, UniProt P15056, V600E)
Chain of BRAF(V600E) (P15056 whole entry V600E): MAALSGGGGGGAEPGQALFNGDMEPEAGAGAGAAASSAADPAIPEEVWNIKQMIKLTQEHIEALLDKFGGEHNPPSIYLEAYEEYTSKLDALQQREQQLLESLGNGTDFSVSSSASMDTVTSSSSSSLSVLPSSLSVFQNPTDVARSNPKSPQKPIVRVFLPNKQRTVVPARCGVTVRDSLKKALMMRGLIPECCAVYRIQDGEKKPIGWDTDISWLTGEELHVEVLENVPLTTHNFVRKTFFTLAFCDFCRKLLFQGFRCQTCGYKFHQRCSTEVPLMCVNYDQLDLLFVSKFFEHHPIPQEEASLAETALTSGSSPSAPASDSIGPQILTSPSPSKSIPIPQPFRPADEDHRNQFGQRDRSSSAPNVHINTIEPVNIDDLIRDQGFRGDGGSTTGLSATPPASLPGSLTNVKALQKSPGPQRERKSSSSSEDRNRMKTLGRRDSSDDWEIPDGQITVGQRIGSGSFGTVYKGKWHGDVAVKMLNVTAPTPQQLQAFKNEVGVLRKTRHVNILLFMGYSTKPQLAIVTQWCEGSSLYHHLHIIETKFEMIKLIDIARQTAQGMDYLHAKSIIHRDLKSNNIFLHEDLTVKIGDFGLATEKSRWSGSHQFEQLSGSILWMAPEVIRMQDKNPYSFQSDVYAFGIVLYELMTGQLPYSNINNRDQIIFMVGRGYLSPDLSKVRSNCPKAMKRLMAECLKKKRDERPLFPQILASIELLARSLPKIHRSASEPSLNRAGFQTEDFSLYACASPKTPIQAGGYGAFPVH
How it was run: as §1

[5] = target: CAMK4 (Homo sapiens, UniProt Q16566)
How it was run: as §1

[6] = target: CSF1R (Homo sapiens, UniProt P07333)
How it was run: as §1

[7] = target: EPHA7 (Homo sapiens, UniProt Q15375)
Chain of EPHA7 (Q15375 whole entry): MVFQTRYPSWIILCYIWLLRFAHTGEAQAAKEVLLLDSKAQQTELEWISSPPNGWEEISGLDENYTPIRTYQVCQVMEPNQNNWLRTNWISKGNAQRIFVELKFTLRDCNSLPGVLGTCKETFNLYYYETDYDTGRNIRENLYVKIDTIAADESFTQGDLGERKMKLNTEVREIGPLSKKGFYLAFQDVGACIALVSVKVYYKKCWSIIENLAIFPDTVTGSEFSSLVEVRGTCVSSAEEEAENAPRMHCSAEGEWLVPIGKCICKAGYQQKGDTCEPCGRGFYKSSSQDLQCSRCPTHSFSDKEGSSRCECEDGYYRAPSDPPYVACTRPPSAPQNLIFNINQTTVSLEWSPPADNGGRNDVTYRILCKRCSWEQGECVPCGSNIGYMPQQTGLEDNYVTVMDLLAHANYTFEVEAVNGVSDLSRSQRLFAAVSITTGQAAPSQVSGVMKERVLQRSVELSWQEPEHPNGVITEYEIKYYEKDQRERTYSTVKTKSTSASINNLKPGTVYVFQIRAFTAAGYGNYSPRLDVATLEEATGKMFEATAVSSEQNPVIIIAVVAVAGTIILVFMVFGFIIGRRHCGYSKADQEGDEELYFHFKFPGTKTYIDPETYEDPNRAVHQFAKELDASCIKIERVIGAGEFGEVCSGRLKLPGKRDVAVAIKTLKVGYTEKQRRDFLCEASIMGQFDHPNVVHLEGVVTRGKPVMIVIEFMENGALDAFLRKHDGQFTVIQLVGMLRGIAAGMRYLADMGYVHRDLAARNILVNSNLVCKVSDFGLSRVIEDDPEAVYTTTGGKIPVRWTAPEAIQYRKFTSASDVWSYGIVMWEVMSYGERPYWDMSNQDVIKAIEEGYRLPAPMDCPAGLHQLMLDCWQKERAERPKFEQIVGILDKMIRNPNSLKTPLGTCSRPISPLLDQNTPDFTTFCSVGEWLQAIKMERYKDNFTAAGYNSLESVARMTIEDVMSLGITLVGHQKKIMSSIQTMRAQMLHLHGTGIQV
How it was run: as §1

[8] = target: FRK (Homo sapiens, UniProt P42685)
Chain of FRK (P42685 whole entry): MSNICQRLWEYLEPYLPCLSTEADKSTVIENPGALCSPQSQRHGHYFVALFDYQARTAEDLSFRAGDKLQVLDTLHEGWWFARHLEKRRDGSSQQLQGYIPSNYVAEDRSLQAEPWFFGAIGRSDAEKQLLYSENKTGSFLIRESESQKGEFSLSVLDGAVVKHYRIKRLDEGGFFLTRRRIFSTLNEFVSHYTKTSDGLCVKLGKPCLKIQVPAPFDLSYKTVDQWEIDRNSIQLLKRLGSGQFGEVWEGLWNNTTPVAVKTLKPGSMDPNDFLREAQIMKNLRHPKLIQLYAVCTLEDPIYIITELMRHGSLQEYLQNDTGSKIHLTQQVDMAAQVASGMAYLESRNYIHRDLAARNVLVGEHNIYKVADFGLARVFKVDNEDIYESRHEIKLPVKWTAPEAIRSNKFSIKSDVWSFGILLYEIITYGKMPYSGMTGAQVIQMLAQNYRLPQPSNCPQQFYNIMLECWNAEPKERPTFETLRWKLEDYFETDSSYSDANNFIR
How it was run: as §1

[9] = target: FYN (Homo sapiens, UniProt P06241)
How it was run: as §1

[10] = target: T2, JNK1 (Homo sapiens, UniProt P45983)
T2 construct: gene MAPK8
How it was run: as §1

[11] = target: NEK10 (Homo sapiens, UniProt Q6ZWH5)
How it was run: as §1

[12] = target: PAK6 (Homo sapiens, UniProt Q9NQU5)
How it was run: as §1

[13] = target: PDGFRB (Homo sapiens, UniProt P09619)
How it was run: as §1

[14] = target: PIK3CA(H1047Y) (Homo sapiens, UniProt P42336, H1047Y)
How it was run: as §1

[15] = target: T3, PYK2 (Homo sapiens, UniProt Q14289)
T3 construct: gene PTK2B
How it was run: as §1

[16] = target: RET(V804L) (Homo sapiens, UniProt P07949, V804L)
How it was run: as §1

[17] = target: T4, S6K1 (Homo sapiens, UniProt P23443)
T4 construct: gene RPS6KB1
T4 sequence (P23443 whole entry): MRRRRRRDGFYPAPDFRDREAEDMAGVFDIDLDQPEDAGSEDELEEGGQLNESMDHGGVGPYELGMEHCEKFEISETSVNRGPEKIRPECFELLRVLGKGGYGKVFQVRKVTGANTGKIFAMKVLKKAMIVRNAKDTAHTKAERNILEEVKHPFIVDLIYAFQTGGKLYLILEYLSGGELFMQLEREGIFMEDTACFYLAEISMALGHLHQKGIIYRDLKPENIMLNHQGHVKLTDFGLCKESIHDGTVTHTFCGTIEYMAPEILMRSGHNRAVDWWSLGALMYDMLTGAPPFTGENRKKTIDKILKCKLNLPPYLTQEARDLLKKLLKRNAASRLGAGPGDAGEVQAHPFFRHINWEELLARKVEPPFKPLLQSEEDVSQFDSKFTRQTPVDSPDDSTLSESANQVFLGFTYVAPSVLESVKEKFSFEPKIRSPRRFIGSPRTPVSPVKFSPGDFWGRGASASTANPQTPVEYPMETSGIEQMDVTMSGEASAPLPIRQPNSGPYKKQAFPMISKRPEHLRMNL
How it was run: as §1

[18] = target: SRC (Homo sapiens, UniProt P12931)
How it was run: as §1

[19] = target: SRPK2 (Homo sapiens, UniProt P78362)
How it was run: as §1

[20] = target: STK33 (Homo sapiens, UniProt Q9BYT3)
How it was run: as §1

[21] = target: T5, TAK1 (Homo sapiens, UniProt O43318)
T5 construct: gene MAP3K7
How it was run: as §1

[22] = target: TRPM6 (Homo sapiens, UniProt Q9BX84)
Chain of TRPM6 (Q9BX84 whole entry): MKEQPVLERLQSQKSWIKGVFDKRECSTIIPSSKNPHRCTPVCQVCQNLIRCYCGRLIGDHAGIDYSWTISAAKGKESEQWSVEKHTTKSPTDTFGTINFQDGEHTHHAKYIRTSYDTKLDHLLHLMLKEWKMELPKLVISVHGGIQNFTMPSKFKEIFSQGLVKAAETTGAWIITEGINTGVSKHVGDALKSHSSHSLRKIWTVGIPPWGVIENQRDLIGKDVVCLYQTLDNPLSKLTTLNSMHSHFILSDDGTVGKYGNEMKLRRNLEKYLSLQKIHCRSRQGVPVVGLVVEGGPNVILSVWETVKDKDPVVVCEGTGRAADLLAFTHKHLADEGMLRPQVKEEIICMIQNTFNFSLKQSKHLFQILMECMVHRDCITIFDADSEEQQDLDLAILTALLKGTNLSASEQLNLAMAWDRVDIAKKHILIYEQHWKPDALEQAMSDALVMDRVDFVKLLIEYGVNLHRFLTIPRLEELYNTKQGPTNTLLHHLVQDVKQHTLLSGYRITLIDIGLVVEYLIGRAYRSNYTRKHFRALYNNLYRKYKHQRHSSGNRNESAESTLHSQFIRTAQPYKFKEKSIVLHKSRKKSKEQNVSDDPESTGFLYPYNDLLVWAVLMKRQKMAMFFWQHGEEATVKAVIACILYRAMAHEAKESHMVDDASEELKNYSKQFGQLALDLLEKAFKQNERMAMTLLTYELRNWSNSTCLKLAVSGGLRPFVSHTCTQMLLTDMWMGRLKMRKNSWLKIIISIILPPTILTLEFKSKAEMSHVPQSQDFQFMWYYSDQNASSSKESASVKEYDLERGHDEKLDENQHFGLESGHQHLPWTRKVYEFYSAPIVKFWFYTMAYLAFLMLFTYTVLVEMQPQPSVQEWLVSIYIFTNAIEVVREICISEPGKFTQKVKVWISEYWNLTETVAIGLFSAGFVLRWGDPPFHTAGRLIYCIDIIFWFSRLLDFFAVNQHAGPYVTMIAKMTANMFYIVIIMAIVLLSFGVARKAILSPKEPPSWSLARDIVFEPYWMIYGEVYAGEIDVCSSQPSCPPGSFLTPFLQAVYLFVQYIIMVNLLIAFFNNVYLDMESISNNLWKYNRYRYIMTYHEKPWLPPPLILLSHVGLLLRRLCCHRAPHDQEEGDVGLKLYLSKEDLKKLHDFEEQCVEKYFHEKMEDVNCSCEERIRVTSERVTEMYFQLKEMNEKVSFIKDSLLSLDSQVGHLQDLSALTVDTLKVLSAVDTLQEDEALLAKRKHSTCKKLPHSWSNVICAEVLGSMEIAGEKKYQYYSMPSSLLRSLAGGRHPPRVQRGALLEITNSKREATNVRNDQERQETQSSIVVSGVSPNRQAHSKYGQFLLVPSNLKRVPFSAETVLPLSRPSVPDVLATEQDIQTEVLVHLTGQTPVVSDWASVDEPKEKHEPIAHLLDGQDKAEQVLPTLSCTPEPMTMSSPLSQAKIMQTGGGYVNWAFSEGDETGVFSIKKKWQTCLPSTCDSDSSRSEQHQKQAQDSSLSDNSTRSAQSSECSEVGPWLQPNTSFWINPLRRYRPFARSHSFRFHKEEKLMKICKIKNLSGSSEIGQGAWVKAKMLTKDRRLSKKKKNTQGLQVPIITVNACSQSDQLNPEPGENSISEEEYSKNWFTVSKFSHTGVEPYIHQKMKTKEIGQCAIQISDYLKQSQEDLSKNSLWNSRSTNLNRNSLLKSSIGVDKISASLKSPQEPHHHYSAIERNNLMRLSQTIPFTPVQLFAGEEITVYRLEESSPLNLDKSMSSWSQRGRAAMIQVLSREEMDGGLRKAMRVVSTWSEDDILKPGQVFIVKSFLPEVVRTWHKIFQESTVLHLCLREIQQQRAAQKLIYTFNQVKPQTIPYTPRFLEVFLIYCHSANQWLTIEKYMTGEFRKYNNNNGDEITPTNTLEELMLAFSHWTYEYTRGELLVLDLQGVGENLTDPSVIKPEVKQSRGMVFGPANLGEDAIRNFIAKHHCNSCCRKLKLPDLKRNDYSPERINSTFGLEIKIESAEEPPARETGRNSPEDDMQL
How it was run: as §1

**Q.** Which remaining binding at 100 µM [1] does the source give for `C=C(C)[C@H]1CC=C(C)C(=O)C1` [S-carvone] here?
**A.** The remaining binding at 100 µM was 77%.

**Q.** And the remaining binding at 100 µM [2]?
**A.** The remaining binding at 100 µM was 92%.

**Q.** And the remaining binding at 100 µM [3]?
**A.** The remaining binding at 100 µM was 100%.

**Q.** What about the remaining binding at 100 µM [4] of the same compound?
**A.** The remaining binding at 100 µM was 90%.

**Q.** And the remaining binding at 100 µM [5]?
**A.** The remaining binding at 100 µM was 70%.

**Q.** And the remaining binding at 100 µM [6]?
**A.** Its remaining binding at 100 µM is 86%.

**Q.** And the remaining binding at 100 µM [7]?
**A.** Its remaining binding at 100 µM is 91%.

**Q.** What about the remaining binding at 100 µM [8] of the same compound?
**A.** Its remaining binding at 100 µM is 83%.

**Q.** And the remaining binding at 100 µM [9]?
**A.** Its remaining binding at 100 µM is 90%.

**Q.** What about the remaining binding at 100 µM [10] of the same compound?
**A.** The remaining binding at 100 µM was 80%.

**Q.** What about the remaining binding at 100 µM [11] of the same compound?
**A.** Its remaining binding at 100 µM is 71%.

**Q.** And the remaining binding at 100 µM [12]?
**A.** Its remaining binding at 100 µM is 98%.

**Q.** And the remaining binding at 100 µM [13]?
**A.** Its remaining binding at 100 µM is 69%.

**Q.** What about the remaining binding at 100 µM [14] of the same compound?
**A.** The remaining binding at 100 µM was 92%.

**Q.** And the remaining binding at 100 µM [15]?
**A.** Its remaining binding at 100 µM is 80%.

**Q.** And the remaining binding at 100 µM [16]?
**A.** Its remaining binding at 100 µM is 87%.

**Q.** And the remaining binding at 100 µM [17]?
**A.** Its remaining binding at 100 µM is 93%.

**Q.** And the remaining binding at 100 µM [18]?
**A.** Its remaining binding at 100 µM is 77%.

**Q.** And the remaining binding at 100 µM [19]?
**A.** The remaining binding at 100 µM was 99%.

**Q.** And the remaining binding at 100 µM [20]?
**A.** Its remaining binding at 100 µM is 100%.

**Q.** What about the remaining binding at 100 µM [21] of the same compound?
**A.** Its remaining binding at 100 µM is 79%.

**Q.** And the remaining binding at 100 µM [22]?
**A.** Its remaining binding at 100 µM is 87%.
